The values below come from patent US10433544B2, “Herbicide” (University of Kentucky Research Foundation, priority 2017, dated 2019).

In assay [1] the target is T1, sorbitol dehydrogenase (SDH) (Ovis aries, UniProt P07846).
T1 sequence (P07846 1-354): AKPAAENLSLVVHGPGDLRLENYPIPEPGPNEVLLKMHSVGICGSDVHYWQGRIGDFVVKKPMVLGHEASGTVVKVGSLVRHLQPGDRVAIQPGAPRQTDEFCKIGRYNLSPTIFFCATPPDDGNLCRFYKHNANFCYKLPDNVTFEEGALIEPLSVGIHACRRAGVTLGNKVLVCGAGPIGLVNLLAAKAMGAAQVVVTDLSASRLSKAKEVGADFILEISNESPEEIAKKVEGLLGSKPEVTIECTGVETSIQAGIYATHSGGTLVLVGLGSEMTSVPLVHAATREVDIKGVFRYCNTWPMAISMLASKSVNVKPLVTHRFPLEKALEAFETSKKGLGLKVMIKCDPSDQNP
The settings on record: cited from earlier work.

The subject of assay [2] is seed of alfalfa, dandelion and mixed grasses. Description: Seed germination in 300 mM solutions of fructose and polyols (FIG. 1). It counts as in vivo. Particulars: ribitol/xylitol 150 mM + 150 mM, 8 days of incubation. Here is the method: FIG. 1 includes a chart showing the effect of 300 mM solutions of fructose and polyols, and a 150 mM ribitol plus 150 mM xylitol (R+X) formulation on seed germination. Means±standard deviation are across alfalfa, dandelion and mixed grasses after 8 days of incubation.
Seed of several species were incubated with 300 mM solutions of fructose, inositol, sorbitol, ribitol, xylitol as well as a ribitol/xylitol solution.

Assay [3] relates to growing plants of several weed species, including clover and pigweed. The assay can be described thus: Container studies, application to growing plants of several weed species (FIG. 3). It counts as in vivo, white clover and pigweed. The settings on record: for effect of application on growing plants: 300 mM total concentration, twice a week for 2 weeks; for rank order of the effect / severity of effect across species: 300 mM; for rank order of the effect: injury and death of growing plants; for severity of effect across species: container studies. Here is the method: FIG. 3 includes images showing the effect of application of selected sugars and polyols twice a week for 2 weeks to white clover (A) and pigweed (B) plants.
(§1) In container studies, fructose, inositol, sorbitol, ribitol, xylitol as well as a ribitol/xylitol solution were applied at 300 mM total concentration to plants including white clover and pigweed. […] Other common sugars like glucose and fructose had no effect. […] Due to the desire for a broad spectrum herbicide that affected both seed germination and plant growth the most, and to keep the most expensive component, ribitol, to a low effective level, we concluded that the 150 mM ribitol/150 mM xylitol formulation (300 mM combined concentration) was the optimum for field tests.

In assay [4] the test system is seed germination of numerous plant species. Description: Ribitol toxicity effect on seed germination, numerous plant species. It counts as in vivo. Particulars: ribitol with no adjuvant. The source says:
An increasing number of species have been identified as bearing the SDH gene and activity (Jia et al., […]), so most weed species could likely metabolize it.

The subject of a further assay is seed of turfgrass. Description: Turfgrass seed germination in xylitol, ribitol and ribitol/xylitol solutions (FIG. 2A). It is filed as in vivo. Particulars: total concentrations 100 to 300 mM, 10 days. Here is the method: (§2) FIG. 2 includes images of grass (A) and Dutch white clover (B) seed germination after 10 days in solutions of xylitol alone, ribitol alone, and xylitol+ribitol, at total concentrations of 100 to 300 mM (grass) or 100 to 400 mM (clover).
(§3) Seed of turfgrass (FIG. 2A) and Dutch white clover (FIG. 2B) were incubated with solutions of xylitol, ribitol, and a ribitol/xylitol solution at 100 to 300 mM (A) or 100 to 400 mM (B). […] The clover seed was in developmental arrest at 400 mM ribitol and 300 mM ribitol/xylitol.

Assay [5] relates to seed of Dutch white clover. Description: Dutch white clover seed germination in xylitol, ribitol and ribitol/xylitol solutions (FIG. 2B). The settings on record: total concentrations 100 to 400 mM, 10 days. It is filed as in vivo. Here is the method:
as §2, §3

The next assay deals with dandelion plants. Description: Container studies, spraying of dandelion plants (FIG. 4). It is filed as in vivo. Particulars: 300 mm, ribitol+xylitol each at 150 mM, sprayed twice weekly for 2 weeks. Here is the method:
FIG. 4 includes images showing the effect of application of […] fructose, glucose, sorbitol, ribitol, xylitol, or ribitol+xylitol (each at 150 mM) twice weekly for 2 weeks on dandelion plants.
as §1

Assay [6] has as its system wild type Arabidopsis seeds. The assay can be described thus: Seed germination with ribitol and SDH specific inhibitor (FIG. 8), Arabidopsis. It is filed as in vivo. The settings on record: 150 mM ribitol, 0.5 mM CP-470711, six days. The protocol: (§4) FIG. 8 includes images showing the effect of blocking SDH activity with (A) water (B) 150 mM ribitol (C) the SDH-specific inhibitor CP-470711(Pfizer) and (D) ribitol+CP-470711 on sensitivity of seed germination of Wild Type Arabidopsis, tomato, and rice for 6 days.
(§5) The effect of blocking SDH activity with an SDH specific inhibitor was explored with application to wild type Arabidopsis, tomato and rice seeds for six days. […] Each compound alone at the same concentration had no effect.

A further assay has as its system tomato seeds. Description: Seed germination with ribitol and SDH specific inhibitor (FIG. 8), tomato. It counts as in vivo. Particulars: 150 mM ribitol, 0.5 mM CP-470711, six days. The protocol:
as §4, §5

The subject of the next assay is rice seeds. Description: Seed germination with ribitol and SDH specific inhibitor (FIG. 8), rice. It counts as in vivo. The settings on record: 150 mM ribitol, 0.5 mM CP-470711, six days. The protocol:
as §4, §5

The subject of assay [7] is sdh-knockout mutant plants and Wild Type plants. The settings on record: 50 mM ribitol, cited from earlier work.
The next assay deals with seed germination. The settings on record: when it cannot be metabolized properly; cited from earlier work.

SMILES strings stand for the structures.

`SCc1ccccc1` [1-thio-1-phenylmethane]: in [1], the SDH inhibition entry is “effective SDH inhibitors”.

On to `SCCc1ccccc1` [1-thio-2-phenylethane], for which the SDH inhibition entry in assay [1] is “effective SDH inhibitors”.

On to `O=C(CO)[C@@H](O)[C@H](O)[C@H](O)CO` [fructose, reference compound], for which the “inhibition of seed germination” value in assay [2] is “only significantly inhibited by the ribitol/xylitol solution”. Besides, in [3], the “effect of application on growing plants” value was “no effect”.

`O[C@H]1[C@H](O)[C@@H](O)[C@H](O)[C@@H](O)[C@H]1O` [inositol, reference compound]: the “inhibition of seed germination” value in [2] was “only significantly inhibited by the ribitol/xylitol solution”.

On to `OC[C@@H](O)[C@@H](O)[C@@H](O)CO` [ribitol], for which the “ribitol concentration at which toxicity effect on seed germination occurred” value in assay [4] is at least 300 mM. Besides, the “inhibition of seed germination” value in assay [2] was “only significantly inhibited by the ribitol/xylitol solution”. Moreover, the “concentration at which grass seed was significantly inhibited” value with seed of turfgrass is on record as 300 mM. The “concentration at which clover seed was in developmental arrest” value in [5] was 400 mM. In assay [3], the “effect of application on growing plants” value is “caused injury and death”. Further, the “rank order of the effect” value in [3] is reported as “sorbitol<xylitol≤ribitol”. The “effect on dandelion plants” value with dandelion plants is “death of plants”. Moreover, the “effect on seed germination” value in assay [6] was “no effect”; in the assay with tomato seeds it was “no effect”; with rice seeds, “no effect”; in the assay with seed germination it was “inhibited seed germination”. The “effect of application on Wild Type plants” value in assay [7] (Wild Type plants) is listed as “no effect”. Besides, the “effect of application on sdh-knockout mutant plants” value in assay [7] (well-watered sdh-knockout mutant plants) was “quick injury and eventual death”.

On to `OC[C@@H](O)[C@@H](O)[C@H](O)[C@@H](O)CO` [sorbitol], for which the “inhibition of seed germination” value in assay [2] is recorded as “only significantly inhibited by the ribitol/xylitol solution”. Also, in assay [3], the “effect of application on growing plants” value is “caused injury and death”; the “severity of effect across species” value is reported as “caused damage”; the “rank order of the effect” value is “sorbitol<xylitol≤ribitol”.

Take `OC[C@@H](O)[C@H](O)[C@@H](O)CO` [xylitol]: the “inhibition of seed germination” value in assay [2] was “only significantly inhibited by the ribitol/xylitol solution”. Moreover, in assay [3], the “effect of application on growing plants” value was “caused injury and death”; the “severity of effect across species” value was “caused damage”; the “rank order of the effect” value is “sorbitol<xylitol≤ribitol”. Also, in the assay on dandelion plants, the “effect on dandelion plants” value is given as “death of plants”.
